In patent US20210255184A1, “Biosensor Device and Methods” (The New Zealand Institute for Plant and Food Research …, priority 2018, published 2021):
Entries after “also recorded” stand apart in the source; their conditions may differ.

What was measured:
[1] = EIS sensor, empty liposomes (specificity control); format: biochemical; settings: empty liposomes without receptor
Procedure: PBS solution was prepared by immersing one tablet of PBS in 200 ml of milli-Q water (according to manufacturers instructions) and filtered using 0.2-μm syringe filter. The pH of the prepared buffer solution was measured with a pH meter. OrX liposomes or OrX/Orco liposomes were diluted 100 fold in PBS buffer solution (pH=7.4) and the COOH-activated electrodes were incubated in that buffer solution at room temperature for one hour. Then, the electrodes were washed extensively with PBS buffer solution to wash out any unbound liposomes.
PBS (pH=7.4) was used as an electrolyte to conduct electrochemical measurements. PBS buffer was degassed for about 30 minutes prior to electrochemical measurements. Odorant solutions of concentration ranging from 1 aM to 1 μM were prepared by sequential dilution in PBS solution containing 1% DMSO. OR immobilized electrodes were incubated in relevant odorant solution for ˜30 minutes each and washed gently with PBS before EIS measurements.
EIS measurements were done in a 3 electrode cell containing Ag/AgCl (3 M NaCl, 0.209 V vs. SHE) reference electrode, coiled platinum wire as a counter electrode and the gold disk as a working electrode at a fixed voltage of −0.7 using PalmSens potentiostat. Degassed PBS was used as an electrolyte.
EIS measurements were performed on gold electrodes functionalised with OrX liposomes (either Or10a or Or22a), OrX/Orco liposomes, or empty liposomes prior to and after target ligand or control ligand incubation with increasing concentrations (1 aM to 100 μM). Dose response curves were obtained by defining sensor response as −(ΔRp/R^op) versus log[C(Ligand)]. FIG. 4a presents the EIS response in terms of Nyquist plot for the Or10a liposome functionalized sensors when exposed to a solution containing one of the known target ligands of Or10a, methyl salicylate, at various concentrations. […] The dose response curve (FIG. 4b) was obtained by plotting the change in polarization resistance −(ΔRp/R^op) versus log[conc(Ligand)], as the sensor response. […]

Or10a/Orco = target: T1, Or10a/Orco (Drosophila melanogaster, UniProt Q9VYZ1); assay: QCM-D sensor, Or10a/Orco liposomes; format: biochemical; settings: 1.6 to 1000 μM in PBS with 1% DMSO
T1 construct: his-tag; made in house; host or cells: baculovirus-infected Sf9 cells
T1 sequence (Q9VYZ1 1-406): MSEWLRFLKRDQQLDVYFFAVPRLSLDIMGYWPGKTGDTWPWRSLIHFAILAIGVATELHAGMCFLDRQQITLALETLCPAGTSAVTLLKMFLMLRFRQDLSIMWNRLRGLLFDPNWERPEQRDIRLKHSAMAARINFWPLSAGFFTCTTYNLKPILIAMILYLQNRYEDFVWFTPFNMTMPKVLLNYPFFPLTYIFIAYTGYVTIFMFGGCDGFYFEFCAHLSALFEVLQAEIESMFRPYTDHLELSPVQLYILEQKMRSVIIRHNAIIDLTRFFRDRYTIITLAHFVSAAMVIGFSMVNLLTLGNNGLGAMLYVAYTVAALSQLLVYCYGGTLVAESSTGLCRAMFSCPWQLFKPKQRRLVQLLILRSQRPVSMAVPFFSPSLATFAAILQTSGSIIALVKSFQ
T1 sequence (Q9VNB5 1-486 partner): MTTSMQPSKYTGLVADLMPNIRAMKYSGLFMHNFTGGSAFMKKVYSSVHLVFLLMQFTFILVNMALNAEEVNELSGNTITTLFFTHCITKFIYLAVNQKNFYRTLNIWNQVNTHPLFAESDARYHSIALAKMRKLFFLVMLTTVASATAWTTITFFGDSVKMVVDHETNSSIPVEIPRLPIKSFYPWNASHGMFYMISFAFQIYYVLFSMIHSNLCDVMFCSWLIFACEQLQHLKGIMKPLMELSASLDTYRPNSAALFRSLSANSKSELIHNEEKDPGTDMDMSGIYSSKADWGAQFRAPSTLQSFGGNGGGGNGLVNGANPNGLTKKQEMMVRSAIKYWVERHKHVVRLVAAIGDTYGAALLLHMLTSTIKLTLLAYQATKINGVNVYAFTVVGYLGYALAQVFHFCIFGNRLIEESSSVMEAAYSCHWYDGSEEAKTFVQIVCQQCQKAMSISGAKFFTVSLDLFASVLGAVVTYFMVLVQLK
Procedure: Gold (100 nm) sensor crystals were sonicated in ethanol and milli-Q water for 15 minutes each respectively. A 5:1:1 volume ratio of milli-Q water, ammonia (25%), and hydrogen peroxide (30%) was heated to 75° C. for 5 minutes and the sonicated crystals were placed in the heated solution for 5 minutes. Then the crystals were removed from the solution and rinsed with milli-Q water before drying with nitrogen gas. The clean gold crystals were thiol-functionalized by exposing them to 2 mM ethanolic solution of MHA overnight followed by washing with ethanol solution in order to remove excess or loosely bound molecules. NHS/EDC was prepared using 2:1 mol:mol ratio of EDC:NHS (100 mM EDC, 50 mM NHS) in 2 ml PBS (pH=6.5) solution. Each OrX/liposome stock solution was diluted 100 fold for QCM-D measurements in PBS buffer solution (pH=7.4). The SAM functionalized crystals were then placed into the Q-sense analyser instrument (Biolin Scientific) chamber and flowed with the NHS/EDC, Or10a/liposomes or Or10a/Orco liposomes, and various concentrations of methyl hexanoate (1.6 μM, 8 μM, 20 μM, 40 μM, 100 μM, 200 μM, 500 μM and 1000 μM) in PBS buffer solution containing 1% DMSO to measure the changes in frequency (Δf) and dissipation (ΔD) values.

COC(=O)c1ccccc1O [methyl salicylate]
sensor response to ligand [1]: negligible response
change in oscillation frequency on ligand exposure (Or10a/Orco): greater response; also recorded: increase in the frequency

CCCCCC(=O)OC [methyl hexanoate]
sensor response to ligand [1]: negligible response
change in oscillation frequency on ligand exposure (Or10a/Orco): negligible response; also recorded: not observed
